In patent publication US20240261294A1, “METHOD FOR TREATING IDH INHIBITOR-RESISTANT SUBJECTS” (Eli Lilly and Company, priority 2021, published 2024):
Changes are numbered by the printed parent chain.

Tests used:
IDH2 R140Q_G260A cis = biological target: T1, IDH2 R140Q_G260A cis (Homo sapiens, UniProt P48735, G260A/R140Q); test: Inhibition of 2-HG production in IDH2 mutant U-87 MG cells; assay type: cell-based; details: 16 hours incubation, 50K cells/well, 100 μl media/well, read-out: Relative IC50 (nM) Mean, inhibition of 2-HG production
T1 construct: expressed in transfected cells; host or cells: U-87 MG
T1 sequence (P48735 40-452 R140Q/G260A): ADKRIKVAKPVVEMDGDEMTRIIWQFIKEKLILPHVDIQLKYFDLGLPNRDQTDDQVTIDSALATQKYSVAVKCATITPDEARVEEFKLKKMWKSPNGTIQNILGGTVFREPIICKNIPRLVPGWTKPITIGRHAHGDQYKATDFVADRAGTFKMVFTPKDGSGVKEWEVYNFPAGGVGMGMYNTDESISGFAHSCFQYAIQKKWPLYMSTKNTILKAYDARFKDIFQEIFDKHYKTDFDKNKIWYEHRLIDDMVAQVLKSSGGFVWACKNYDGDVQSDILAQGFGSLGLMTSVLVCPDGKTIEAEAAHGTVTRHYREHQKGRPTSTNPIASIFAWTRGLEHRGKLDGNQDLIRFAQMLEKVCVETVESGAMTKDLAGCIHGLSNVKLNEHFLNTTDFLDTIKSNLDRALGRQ

IDH2 R140L_Q316E cis = biological target: T2, IDH2 R140L_Q316E cis (Homo sapiens, UniProt P48735, Q316E/R140L); test: as above; assay type: cell-based; details: 16 hours incubation, 50K cells/well, 100 μl media/well, read-out: Relative IC50 (nM) Mean, inhibition of 2-HG production
T2 construct: expressed in transfected cells; host or cells: U-87 MG
T2 sequence (P48735 40-452 R140L/Q316E): T1 sequence (P48735 40-452 R140Q/G260A) with Q101L, A221G, Q277E

IC50 (IDH2 R140Q_G260A cis): 7 nM
IC50 (IDH2 R140L_Q316E cis): 145 nM
Structure (SMILES): C=CC(=O)N1CCN([C@@H](CC2CC2)c2ccc([C@H](C)Nc3ncc4c(n3)N(CC)C(=O)OC4)cc2)CC1 [Compound A, 7-[[(1S)-1-[4-[(1S)-2-cyclopropyl-1-(4-prop-2-enoylpiperazin-1-yl)ethyl]phenyl]ethyl]amino]-1-ethyl-4H-pyrimido[4,5-d][1,3]oxazin-2-one]
